#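 These data come from cells grown in 96-well plates and exposed to compound for 48 hours at five concentrations. TGI marks complete inhibition of growth.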
# Experiments:
# P388 leukemia = test: NCI tumour cell line growth inhibition, 48 h
# SN12K1 renal = test: NCI tumour cell line growth inhibition, 48 h
compound,measurement,setting,value
O=C(CCN1CCOCC1)/C(=C/c1ccccc1)c1ccccc1,TGI,P388 leukemia,12.4 µM
same,TGI,SN12K1 renal,10.9 µM

# — PubChem BioAssay (NCI)
